Laboratory results reported in ChEMBL document CHEMBL3045369 (J Neurochem, 2000).
The source made the active and inactive calls. The calls are words filed in the database; no cut-off is given here.

Tests used:
[1] = target: T1, Acetylcholine receptor subunit beta-like 2 (Drosophila melanogaster, UniProt P25162); assay: Displacement of [3H]IMI from nicotinic acetylcholine receptor in Drosophila melanogaster head membrane after 90 min by filter binding assay
T1 sequence (P25162 whole entry): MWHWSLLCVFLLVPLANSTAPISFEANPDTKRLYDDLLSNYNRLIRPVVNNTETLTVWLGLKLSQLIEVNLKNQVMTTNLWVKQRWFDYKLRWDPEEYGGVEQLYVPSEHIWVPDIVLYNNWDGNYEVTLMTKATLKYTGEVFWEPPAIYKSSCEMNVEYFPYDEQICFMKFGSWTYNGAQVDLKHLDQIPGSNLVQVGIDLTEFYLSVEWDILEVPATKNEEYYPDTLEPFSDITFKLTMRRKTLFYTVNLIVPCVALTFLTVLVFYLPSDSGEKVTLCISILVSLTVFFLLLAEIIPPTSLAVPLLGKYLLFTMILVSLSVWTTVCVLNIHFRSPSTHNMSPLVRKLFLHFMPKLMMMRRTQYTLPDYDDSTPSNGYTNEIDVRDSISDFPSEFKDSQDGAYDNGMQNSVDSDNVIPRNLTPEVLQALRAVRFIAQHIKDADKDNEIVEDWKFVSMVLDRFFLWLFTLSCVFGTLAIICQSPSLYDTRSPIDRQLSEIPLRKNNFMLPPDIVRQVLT

[2] = target: T2, Nicotinic acetylcholine receptor alpha 5 subunit (Musca domestica, UniProt A9XFY4); assay: Displacement of [3H]IMI from nicotinic acetylcholine receptor in Musca domestica (house fly) head membrane after 90 min by filter binding assay
T2 sequence (A9XFY4 whole entry): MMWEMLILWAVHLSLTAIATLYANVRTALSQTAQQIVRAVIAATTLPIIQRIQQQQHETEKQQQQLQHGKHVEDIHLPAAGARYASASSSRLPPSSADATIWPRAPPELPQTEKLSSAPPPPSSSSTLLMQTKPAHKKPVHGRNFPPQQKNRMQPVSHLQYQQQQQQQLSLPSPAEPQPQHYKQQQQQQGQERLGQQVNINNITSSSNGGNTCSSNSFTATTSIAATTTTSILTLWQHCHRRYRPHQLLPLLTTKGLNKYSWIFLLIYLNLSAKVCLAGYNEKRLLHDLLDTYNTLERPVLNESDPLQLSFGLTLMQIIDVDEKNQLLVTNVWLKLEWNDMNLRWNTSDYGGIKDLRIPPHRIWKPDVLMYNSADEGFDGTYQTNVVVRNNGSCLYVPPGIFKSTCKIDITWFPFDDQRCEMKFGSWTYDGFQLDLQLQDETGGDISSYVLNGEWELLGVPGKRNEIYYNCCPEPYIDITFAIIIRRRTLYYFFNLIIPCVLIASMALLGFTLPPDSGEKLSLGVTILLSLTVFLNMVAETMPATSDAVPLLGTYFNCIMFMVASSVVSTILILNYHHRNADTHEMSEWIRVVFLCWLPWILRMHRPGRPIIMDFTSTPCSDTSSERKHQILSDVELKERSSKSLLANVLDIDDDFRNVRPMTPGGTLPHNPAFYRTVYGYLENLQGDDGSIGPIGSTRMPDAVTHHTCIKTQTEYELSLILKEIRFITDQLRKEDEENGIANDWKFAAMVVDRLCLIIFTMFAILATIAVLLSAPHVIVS

[3] = Displacement of [3H]IMI from nicotinic acetylcholine receptor in Myzus persicae (green peach aphid) whole body membrane after 90 min by filter binding assay
Myzus persicae = assay: Competitive inhibition of nicotinic acetylcholine receptor in Myzus persicae (green peach aphid) whole body membrane using [3H]IMI as substrate incubated for 5 min prior to substrate addition measured after 90 min by Sctachard plot analysis
[4] = target: T3, Acetylcholine receptor subunit beta-like 2 (Drosophila melanogaster) (UniProt P25162); assay: Competitive inhibition of nicotinic acetylcholine receptor in Drosophila melanogaster head membrane using [3H]IMI as substrate incubated for 5 min prior to substrate addition measured after 90 min by Sctachard plot analysis
T3 sequence (whole entry): T1 sequence (P25162 whole entry)

SMILES	IC50 [1]	IC50 [2]	IC50 [3]	inhibition (Myzus persicae)	inhibition [4]
C/N=C(\NCc1ccc(Cl)nc1)N[N+](=O)[O-]	7.4 nM	7.1 nM	15 nM		
CN1CN(C)/C(=N\[N+](=O)[O-])N(Cc2cnc(Cl)s2)C1	> 1000 nM		> 1000 nM		
CCN(Cc1cnc(Cl)s1)/C(=C/[N+](=O)[O-])NC	160 nM		150 nM		
CN1CN(C)/C(=N\[N+](=O)[O-])N(Cc2ccc(Cl)nc2)C1	> 1000 nM		> 1000 nM		
C/C(=N\C#N)N(C)Cc1cnc(Cl)s1	154 nM		65 nM		
N#C/N=C1\SCCN1Cc1cnc(Cl)s1	94 nM		56 nM		
O=[N+]([O-])/N=C1\NCOCN1Cc1ccc(Cl)nc1	22 nM	14 nM	13 nM		
O=[N+]([O-])C=C1NCCCS1	4700 nM		3500 nM		
C/C(=N\C#N)N(C)Cc1ccc(Cl)nc1 [ACETAMIPRID]	8.3 nM		10 nM		
CN/C(=N\[N+](=O)[O-])NCc1cnc(Cl)s1 [CLOTHIANIDINE]	2.2 nM	1.8 nM	9.2 nM	Active	Active
O=[N+]([O-])/N=C1\NCOCN1Cc1cnc(Cl)s1 [DESMETHYLTHIAMETHOXAM]	20 nM	16 nM	10 nM	Active	Active
CN/C(=N/CC1CCOC1)N[N+](=O)[O-] (stereo unspecified) [DINOTEFURAN]	5000 nM				
O=[N+]([O-])/N=C1\NCCN1Cc1ccc(Cl)nc1 [IMIDACLOPRID]	2.3 nM	2.6 nM	3.1 nM		
O=[N+]([O-])/N=C1\NCCN1Cc1cnc(Cl)s1 [IMIDACLOTHIZ]	17 nM	12 nM	21 nM		
CCN(Cc1ccc(Cl)nc1)/C(=C/[N+](=O)[O-])NC [NITENPYRAM]	11 nM		21 nM		
N#C/N=C1\SCCN1Cc1ccc(Cl)nc1 [THIACLOPRID]	7.5 nM		3.4 nM		
